Assay results as given in US6783769B1, “Transdermal therapeutic system TTS containing tolterodine” (Schwarz Pharma AG, priority 1999, dated 2004).
Where two headings read alike, the source gives them in different places.

Tests used:
[1] = Rate of dermal penetration, deuterated versus non-deuterated tolterodine (general statement); type: in vitro ADME; settings: compared with non-deuterated tolterodine
[2] = oral application, cited from earlier work

Structure (SMILES) | rate of dermal penetration [1] | absolute bioavailability ([2]; rapid metabolisers) [%] | absolute bioavailability ([2]; slow metabolisers) [%]
[2H]C([2H])([2H])c1ccc(O)c(C(CCN(C(C)C)C(C)C)c2ccccc2)c1 (stereo not drawn) [deuterated tolterodine, 2-(3-diisopropylamino-1-phenylpropyl)-4-[^2H3]methyl-phenol] | considerably increased | – | –
Cc1ccc(O)c(C(CCN(C(C)C)C(C)C)c2ccccc2)c1 (stereo not drawn) [tolterodine, N,N-diisopropyl-3-(2-hydroxy-5-methylphenyl)-3-phenylpropylamine] | – | 17 | 65
